According to US8324406B2, “Antitumoral dihydropyran-2-one compounds” (priority 2006, dated 2012):
Read-outs that look alike come from different tables or passages of the source.

Experiments:
Assay in all cases: cells
Format in all cases: cell-based
Conditions in all cases: Homo sapiens; for IC (TGI): read-out: TGI
[1] = tested on: HT29
Description: (§1) The aim of this assay is to evaluate the in vitro cytostatic (ability to delay or arrest tumor cell growth) or cytotoxic (ability to kill tumor cells) activity of the samples being tested.
(§2) Evaluation of Cytotoxic Activity Using the SBR Colorimetric Assay
(§3) A colorimetric type of assay, using sulforhodamine B (SRB) reaction has been adapted for a quantitative measurement of cell growth and viability (following the technique described by Skehan P et al. J. Natl. Cancer Inst. 1990, 82, 1107-1112).
(§4) This form of assay employs SBS-standard 96-well cell culture microplates (Faircloth et al. Methods in cell science, 1988, 11(4), 201-205; Mosmann et al, Journal of. Immunological. Methods, 1983, 65(1-2), 55-63). All the cell lines used in this study, derived from different types of human cancer, were obtained from the American Type Culture Collection (ATCC).
(§5) Cells were maintained in Dulbecco's Modified Eagle Medium (DMEM) supplemented with 10% Fetal Bovine Serum (FBS), 2 mM L-glutamine, 100 U/mL penicillin and 100 U/mL streptomycin at 37° C., 5% CO2 and 98% humidity. For the experiments, cells were harvested from subconfluent cultures using trypsinization and resuspended in fresh medium before counting and plating.
(§6) Cells were seeded in 96 well microtiter plates at 5×10^3 cells per well in aliquots of 150 μL, and allowed to attach to the plate surface for 18 hours in drug free medium. One control (untreated) plate of each cell line was fixed (as described below) and used for time zero reference value. Afterwards, test samples were added to the cultures in ten serial dilutions, in aliquots of 50 μL, ranging from 10 to 0.00262 μg/mL. After 48 hours exposure, the antitumor effect was estimated by the SRB method: Briefly, cells were washed twice with PBS, fixed for 15 min in 1% glutaraldehyde solution, rinsed twice in PBS, and stained in 0.4% SRB solution for 30 min at room temperature. Cells were then rinsed several times with 1% acetic acid solution and air-dried. SRB was then extracted in 10 mM trizma base solution and the absorbance measured in an automated spectrophotometric plate reader at 490 nm. Cell survival was expressed as percentage of control cell growth. The final effect of the sample being tested was estimated by applying the NCI algorithm (Boyd M R and Paull K D. Drug Dev. Res. 1995, 34, 91-104).
(§7) Using the mean±SD of triplicate cultures, a dose-response curve was automatically generated using nonlinear regression analysis. Three reference parameters were calculated (NCI algorithm) by automatic interpolation: GI50=concentration that produces 50% growth inhibition; TGI=total growth inhibition (cytostatic effect) and LC50=concentration that produces 50% net cell killing (cytotoxic effect).

[2] = tested on: MDA-MB-231
Description: as §1, §2, §3, §4, §5, §6, §7

[3] = tested on: A549
Description: as §1, §2, §3, §4, §5, §6, §7

[4] = HT-29, HT29, 48 hours exposure, SRB, 50% net cell killing (cytotoxic effect), read-out: LC50 (the source's name)
[5] = HT-29, HT29, 48 hours exposure, SRB, concentration that produces 50% growth inhibition, read-out: GI50
[6] = HT-29, HT29, 48 hours exposure, SRB, total growth inhibition (cytostatic effect)
[7] = MDA-MB-231, 48 hours exposure, SRB, 50% net cell killing (cytotoxic effect), read-out: LC50 (the source's name)
[8] = MDA-MB-231, 48 hours exposure, SRB, concentration that produces 50% growth inhibition, read-out: GI50
[9] = MDA-MB-231, 48 hours exposure, SRB, total growth inhibition (cytostatic effect)
[10] = A549, 48 hours exposure, SRB, 50% net cell killing (cytotoxic effect), read-out: LC50 (the source's name)
[11] = A549, 48 hours exposure, SRB, concentration that produces 50% growth inhibition, read-out: GI50
[12] = A549, 48 hours exposure, SRB, total growth inhibition (cytostatic effect)

| Structure (SMILES) | CC50 [1, 4] | GI50 [1, 5] | IC (TGI) [1, 6] | CC50 [2, 7] | GI50 [2, 8] | IC (TGI) [2, 9] | CC50 [3, 10] | GI50 [3, 11] | IC (TGI) [3, 12] | GI50 ([1]; HT-29, 48 h) | CC50 ([1]; HT-29, 48 h, read-out: LC50) | IC (TGI) ([1]; HT-29, 48 h) | GI50 ([2]; MDA-MB-231, 48 h) | CC50 ([2]; MDA-MB-231, 48 h, read-out: LC50) | IC (TGI) ([2]; MDA-MB-231, 48 h) | GI50 ([3]; A549, 48 h) | CC50 ([3]; A549, 48 h, read-out: LC50) | IC (TGI) ([3]; A549, 48 h) |
| --- | --- | --- | --- | --- | --- | --- | --- | --- | --- | --- | --- | --- | --- | --- | --- | --- | --- | --- |
| COC1=CC[C@@H]([C@@H](C)/C=C(C)/C=C\C=C\C(=O)N[C@H](C(=O)N/C=C\C[C@H](C/C=C(\C)Cl)O[Si](C)(C)C(C)(C)C)C(C)(C)C)OC1=O [Compound 29e] | 2360 nM | 2070 nM | 2210 nM | 2070 nM | 1140 nM | 1480 nM | 2660 nM | 1150 nM | 1770 nM | – | – | – | – | – | – | – | – | – |
| COC1=CC[C@@H]([C@@H](C)/C=C(C)/C=C\C=C\C(=O)N[C@H](C(=O)N/C=C\C[C@@H](O)C/C=C(\C)Cl)C(C)(C)C)OC1=O [Compound 30e] | 44.4 nM | 13.5 nM | 21.3 nM | 266 nM | 23.1 nM | 65.7 nM | 3550 nM | 35.5 nM | 302 nM | – | – | – | – | – | – | – | – | – |
| C/C=C\C[C@H](O)C/C=C\NC(=O)[C@@H](NC(=O)\C=C/C=C\C(C)=C\[C@H](C)[C@@H]1CC=C(OC)C(=O)O1)C(C)(C)C [Compound 30b] | 4730 nM | 9.84 nM | 92.7 nM | 5110 nM | 20.8 nM | 511 nM | > 18900 nM | 22.7 nM | 322 nM | – | – | – | – | – | – | – | – | – |
| COC1=CC[C@@H]([C@@H](C)/C=C(C)/C=C\C=C/C(=O)N[C@H](C(N)=O)C(C)(C)C)OC1=O [Compound 7] | 816 nM | 420 nM | 544 nM | 2450 nM | 420 nM | 841 nM | > 2470 nM | 618 nM | 1190 nM | – | – | – | – | – | – | – | – | – |
| COC1=CC[C@@H]([C@@H](C)/C=C(C)/C=C/C=C/C(=O)N[C@H](C(=O)N/C=C\C[C@H](C/C=C(\C)Cl)OC(N)=O)C(C)(C)C)OC1=O [Compound 3] | – | – | – | – | – | – | – | – | – | 0.445 nM | > 165 nM | 0.759 nM | 0.924 nM | 9.57 nM | 2.47 nM | 1.02 nM | > 165 nM | 4.29 nM |
| COC1=CC[C@@H]([C@@H](C)/C=C(C)/C=C/C=C/C(=O)N[C@H](C(=O)N/C=C\C[C@@H](O)C/C=C(\C)Cl)C(C)(C)C)OC1=O [Compound 38] | > 178 nM | 39.1 nM | 63.9 nM | > 178 nM | 60.4 nM | > 178 nM | > 178 nM | 46.2 nM | 67.5 nM | – | – | – | – | – | – | – | – | – |
| COC1=CC[C@@H]([C@@H](C)/C=C(C)/C=C\C=C/C(=O)N[C@H](C(=O)N/C=C\C[C@H](O)C/C=C(\C)Cl)C(C)(C)C)OC1=O [(21S)-30a] | > 1630 nM | 2.66 nM | 3.02 nM | 284 nM | 2.49 nM | 21.3 nM | > 1630 nM | 3.73 nM | 195 nM | – | – | – | – | – | – | – | – | – |
| COC1=CC[C@@H]([C@@H](C)/C=C(C)/C=C\C=C/C(=O)N[C@@H](Cc2ccccc2)C(=O)N/C=C\C[C@H](C/C=C(\C)Cl)OC(N)=O)OC1=O [Compound 31] | > 15.6 nM | 0.0406 nM | 0.102 nM | 0.359 nM | 0.075 nM | 0.15 nM | > 15.6 nM | 0.0922 nM | 0.219 nM | – | – | – | – | – | – | – | – | – |
| COC1=CC[C@@H]([C@@H](C)/C=C(C)/C=C\C=C/C(=O)N[C@H](C(=O)N/C=C\C[C@@H](O)C/C=C(\C)Cl)C(C)(C)C)OC1=O [Compound 30a] | 10.1 nM | 1.35 nM | 2.13 nM | 85.2 nM | 1.95 nM | 9.41 nM | > 1780 nM | 2.31 nM | 137 nM | – | – | – | – | – | – | – | – | – |
